Data: patent US11401271B2, “Fused heterocyclic compound, pyrazole-ring-containing fused heterocyclic compound, agricultural composition containing thereof, and method of using the composition” (SOUTH CHINA AGRICULTURAL UNIVERSITY, priority 2017, dated 2022)
Read-outs that look alike come from different tables or passages of the source.

Columns and labels:
Experiment in all cases: whole plant or invertebrate
Type in all cases: in vivo
Aphis craccivora = details: for Aphis craccivora Mortality (%): immersion 5 seconds, counted after 24 hours; for mortality at 500 ppm: Aphis craccivora, 24 h, read-out: Aphis craccivora Mortality (%) 500 ppm
Procedure: (3) Insecticidal Activity on Aphid Adults.
Aphid is a homoptera pest with a piercing-sucking mouthpart and is a common vegetable pest. Aphis craccivora were taken as test objects and tested by using an impregnation method.
Operation process: Samples were weighed accurately, and respectively added with 200 μL of dimethyl sulfoxide to prepare 10 g/L mother liquor which was diluted into a concentration of 500 ppm with an aqueous solution containing 0.05% of Tween-80 during the test. After the wingless Aphis craccivora adults stably sucked on bean sprouts, the wingless Aphis craccivora adults together with the bean sprouts were immersed into a liquid medicine with a concentration of 500 ppm, taken out after 5 seconds, air-dried naturally, transferred into a clean vessel, and fed at a constant temperature of 23° C. Each concentration was repeated 3 times, and an aqueous solution containing 0.05% of Tween-80 was used as a control group. After being treated for 24 hours, a number of dead Aphis craccivora was counted, and a mortality (%) was calculated according to a formula that mortality (%)=(number of live Aphis craccivora in the control group−number of treated live Aphis craccivora)/number of live Aphis craccivora in the control group*100%.

Plutella xylostella = details: for mortality at 500 ppm: Plutella xylostella, read-out: Plutella xylostella Mortality (%) 500 ppm
Procedure: (1) Insecticidal Activity on 2nd-Instar Larvae of Plutella xylostella.
Plutella xylostella (L.) is a lepidoptera pest with a chewing mouthpart and is a common vegetable pest. The 2nd-instar larvae of Plutella xylostella were used as test objects and tested by using a leaf immersion feeding method.
(§1) Operation process: Samples were weighed accurately, and respectively added with 200 μL of dimethyl sulfoxide to prepare 10 g/L mother liquor which was diluted into a concentration of 500 ppm with an aqueous solution containing 0.05% of Tween-80 during the test. A hole puncher with a diameter of 1.0 cm was used to make cleaned cabbage leaves into leaf discs. The leaf discs were immersed in a liquid medicine, taken out after 5 seconds, air-dried naturally, and transferred into a clean vessel. About 35 2nd-instar larvae of Plutella xylostella were put into the vessel and fed at a constant temperature of 28° C. Each concentration was repeated 3 times, and an aqueous solution containing 0.05% of Tween-80 was used as a control group. After being treated for 24 hours, a number of dead Plutella xylostella was counted, and a mortality (%) was calculated according to a formula that mortality (%)=(number of live larvae in the control group−number of treated live larvae)/number of live larvae in the control group*100%.

Spodoptera exigua = details: for mortality at 500 ppm: Spodoptera exigua, 24 h, read-out: Spodoptera exigua Mortality (%) 500 ppm
Procedure: (2) Insecticidal Activity on 2nd-Instar Larvae of Spodoptera exigua.
Spodoptera exigua is a lepidoptera pest with a chewing mouthpart and is a common vegetable pest. The 2nd-instar larvae of Spodoptera exigua were used as test objects and tested by using a leaf immersion feeding method.
as §1, with “μL,” for “μL”, “2nd -instar” for “2nd-instar”, “Spodoptera exigua” for “Plutella xylostella”, “group −number” for “group−number”, “group * 100%.” for “group*100%.”

Solenopsis invicta = details: water test tube poison-feeding; for mortality at 100 ppm: Solenopsis invicta
Procedure: (4) Insecticidal Activity on Solenopsis invicta.
As a hymenoptera pests and a social insect, Solenopsis invicta is one of the most destructive invasive organisms. Solenopsis invicta were used as test objects and tested by using a water test tube poison-feeding method.
Operation process: Samples were weighed accurately, and respectively added with 200 μL of dimethyl sulfoxide to prepare 10 g/L mother liquor which was diluted into a concentration of 100 ppm with a mixed aqueous solution containing 0.05% of Tween-80 and 5% of honey during the test. […] The raising test tube was placed in a raising box horizontally, and a small amount of ham sausages were added to the raising test tube as food to raise the Solenopsis invicta at a constant temperature of 25° C. After being treated for 24 hours and 72 hours, a number of live Solenopsis invicta and a number of dead Solenopsis invicta were counted, and a mortality (%) was calculated according to a formula that mortality (%)=(number of live Solenopsis invicta in the control group−number of treated live Solenopsis invicta)/number of live Solenopsis invicta in the control group*100%.

[1] = 500 ppm, 2nd-instar larvae, leaf immersion feeding
[2] = 24 h, read-out: Solenopsis invicta Mortality (%) 100 ppm 24 h, 100 ppm, 24 h
[3] = 72 h, read-out: Solenopsis invicta Mortality (%) 100 ppm 72 h, 100 ppm, 72 h

Compound | Aphis craccivora Mortality (%) (Aphis craccivora; 500 ppm, wingless adults) | Plutella xylostella Mortality (%) (Plutella xylostella; [1]) | Spodoptera exigua Mortality (%) (Spodoptera exigua; [1]) | Solenopsis invicta Mortality (%) 24 h (Solenopsis invicta; 100 ppm, 24 h) | Solenopsis invicta Mortality (%) 72 h (Solenopsis invicta; 100 ppm, 72 h) | mortality at 500 ppm (Aphis craccivora) | mortality at 500 ppm (Plutella xylostella) | mortality at 500 ppm (Spodoptera exigua) | mortality at 100 ppm (Solenopsis invicta; [2]) | mortality at 100 ppm (Solenopsis invicta; [3]) | other results
N#CCC1(C(F)(F)F)Nc2c([S+]([O-])C(F)(F)F)c(C#N)nn2-c2c(Cl)cc(C(F)(F)F)cc21 (stereo not drawn) [d-70] | 99% | 91% | 90% | 20% | 98% |  |  |  |  |  | 
CC=CC1Nc2c([S+]([O-])C(F)(F)F)c(C#N)nn2-c2cncc(Cl)c21 (stereo not drawn) [b-86] | 100% | 96% | 89% | 20% | 97% |  |  |  |  |  | 
CNC(=O)C1Nc2c([S+]([O-])C(F)(F)F)c(C(F)(F)F)nn2-c2cncc(Cl)c21 (stereo not drawn) [b-99] | 100% | 91% | 85% | 24% | 90% |  |  |  |  |  | 
N#Cc1nn2c(c1[S+]([O-])C(F)(F)F)NC(CC(=O)C(F)(F)F)(C(=O)C(F)(F)F)c1cc(C(F)(F)F)cc(Cl)c1-2 (stereo not drawn) [d-50] | 100% | 100% | 90% | 26% | 93% |  |  |  |  |  | 
COC(=O)CC1(C(=O)OC)Nc2c([S+]([O-])C(F)(F)F)c(C#N)nn2-c2c(C(F)(F)F)ccc(Cl)c21 (stereo not drawn) [e-1] | 100% | 100% | 100% | 33% | 100% |  |  |  |  |  | 
COC(=O)C1(CBr)Nc2c([S+]([O-])C(F)(F)F)c(C#N)nn2-c2c(Cl)cc(C(F)(F)F)cc21 (stereo not drawn) [d-34] | 100% | 90% | 95% | 25% | 93% |  |  |  |  |  | 
N#CCC1Nc2c(OC(F)(F)F)c(C#N)nn2-c2c(Cl)cc(C(F)(F)F)cc21 (stereo not drawn) [d-129] | 100% | 95% | 100% | 24% | 100% |  |  |  |  |  | 
CSc1nn2c(c1C(N)=O)NC(F)(C(F)(F)F)c1ccccc1-2 (stereo not drawn) [Compound A28] |  |  |  |  |  | 100% | 100% | 90% | 29% | 97% | 
N#Cc1nn2c(c1-c1ccccc1C(F)(F)F)NC(CCl)(C(O)CO)c1cc(C(F)(F)F)cc(Cl)c1-2 (stereo not drawn) [Compound C53] |  |  |  |  |  | 90% | 78% | 89% | 28% | 97% | 
CC(=O)c1nn2c(c1[S+](C)[O-])NC(CC(N)=O)(C(N)=O)c1cc(C(F)(F)F)cc(Cl)c1-2 (stereo not drawn) [Compound C49] |  |  |  |  |  | 90% | 87% | 89% | 20% | 81% | 
CC(=O)C1(CBr)Nc2c([S+]([O-])C(F)(F)F)c(C#N)nn2-c2cncc(Cl)c21 (stereo not drawn) [b-34] | 100% | 90% | 87% | 10% | 100% |  |  |  |  |  | 
COC(=O)C1(CC(=O)OCC(F)F)Nc2c([S+]([O-])C(F)(F)F)c(C#N)nn2-c2cc(C(F)(F)F)cc(Cl)c21 (stereo not drawn) [c-20] | 100% | 100% | 100% | 14% | 100% |  |  |  |  |  | 
N#CCC1(C(F)(F)F)Nc2c([S+]([O-])C(F)(F)F)c(C#N)nn2-c2ncc(C(F)(F)F)cc21 (stereo not drawn) [a-59] |  |  |  |  |  |  |  |  |  |  | Aphis craccivora Mortality (%) 500 ppm (Aphis craccivora; 500 ppm, wingless adults, impregnation method, 24 hours): 100%; Plutella xylostella Mortality (%) 500 ppm (Plutella xylostella; [1]): 96%; Spodoptera exigua Mortality (%) 500 ppm (Spodoptera exigua; 500 ppm, 2nd-instar larvae, leaf immersion feeding, 24 hours): 91%; Solenopsis invicta Mortality (%) 100 ppm 24 h (Solenopsis invicta; 100 ppm, 24 h): 28%; Solenopsis invicta Mortality (%) 100 ppm 72 h (Solenopsis invicta; 100 ppm, 72 h): 97%
C=CC1(CCl)Nc2c(Br)c(C#N)nn2-c2c(Cl)cc(C(F)(F)F)cc21 (stereo not drawn) [Compound C5] |  |  |  |  |  | 100% | 100% | 100% | 34% | 100% | 
CC(=O)Nc1c(C#N)nn2c1NC(C)(C)c1ccccc1-2 [Compound A17] |  |  |  |  |  | 100% | 100% | 100% | 34% | 100% | 
CCOC(=O)C1(CC(=O)OC)Nc2c([S+]([O-])C(F)(F)F)c(C#N)nn2-c2c(C(F)(F)F)ccc(Cl)c21 (stereo not drawn) [e-6] | 100% | 100% | 100% | 34% | 100% |  |  |  |  |  | 
COC(=O)CC1Nc2c([S+]([O-])C(F)(F)F)c(C(F)(F)F)nn2-c2cncc(Cl)c21 (stereo not drawn) [b-88] | 100% | 100% | 100% | 25% | 100% |  |  |  |  |  | 
Cc1cc(-c2c(C#N)nn3c2NC(C(O)CO)(C(F)(F)F)c2cc(C(F)(F)F)cc(Cl)c2-3)c(C)o1 (stereo not drawn) [Compound C54] |  |  |  |  |  | 87% | 77% | 78% | 17% | 84% | 
